Data on twelve compounds can be found in ChEMBL document CHEMBL1914337, “Synthesis and biological evaluation of 2-indolinone derivatives as potential antitumor agents” (Eur J Med Chem, 2011).

The nature of experiment [1]: Cytotoxicity against human QSG7701 cells after 48 hrs by MTT assay. As to conditions: QSG7701, 48 h. It is filed as cell-based. On the technique in general: Tetrazolium dyes change colour on reduction, which living cells bring about.
Another experiment has as its system PC-3. The experiment is described as follows: Cytotoxicity against human PC3 cells after 48 hrs by MTT assay. Format: functional, cell-based. As to conditions: PC-3, 48 h.
A further experiment concerns HCT-116. The experiment can be described thus: cells. The following applies: Homo sapiens, HCT-116, 48 h.
A further experiment concerns A549. The experiment can be described thus: cells. As to conditions: Homo sapiens, A549, 48 h.
For the next experiment, the system named is HepG2. The experiment can be described thus: cells. As to conditions: Homo sapiens, HepG2, 48 h.
Another experiment deals with HL-60. The experiment can be described thus: cells. The following applies: Homo sapiens, HL-60, 48 h.
For another experiment, the system named is K562. The experiment can be described thus: cells. As to conditions: Homo sapiens, K562, 48 h.

Description for A549: Cytotoxicity against human A549 cells after 48 hrs by MTT assay
Description for HCT-116: Cytotoxicity against human HCT116 cells after 48 hrs by MTT assay
Description for HL-60: Cytotoxicity against human HL60 cells after 48 hrs by MTT assay
Description for HepG2: Cytotoxicity against human HepG2 cells after 48 hrs by MTT assay
Description for K562: Cytotoxicity against human K562 cells after 48 hrs by MTT assay

Broadly, the IC50 is the concentration that gives 50% inhibition. Consider `O=C1Nc2cccnc2C1=Cc1c[nH]c2cc(F)ccc12` (mixture of isomers), for which the IC50 (in experiment [1]; with PC-3; with HCT-116; with A549; in the experiment with HepG2; in the experiment on HL-60) was more than 50 µM throughout. This compound showed an IC50 with K562 of more than 50 µM.
For the compound `O=C1Nc2ncccc2/C1=C/c1c[nH]c2cc(F)ccc12`, the IC50 in experiment [1] is more than 50 µM; with PC-3, more than 50 µM; in the experiment with HCT-116 it was 22.3 µM; with A549, 31.1 µM; in the experiment on HepG2, 15.4 µM; in the experiment on HL-60, 34.1 µM. This compound returned an IC50 in the experiment on K562 of more than 50 µM.
On to `Cc1[nH]c(/C=C2\C(=O)Nc3ncccc32)c(C)c1C(=O)NCCN1CCOCC1`, for which the IC50 in experiment [1] was more than 50 µM; with PC-3, more than 50 µM; in the experiment on HCT-116, 25.5 µM; in the experiment on A549, 29.2 µM; with HepG2 it was more than 50 µM; in the experiment on HL-60, 27.8 µM. This compound also had an IC50 in the experiment with K562 of more than 50 µM.
Regarding `O=C1Nc2ccc(F)cc2/C1=C/c1c[nH]c2cc(F)ccc12`, the IC50 in experiment [1] was more than 50 µM; in the experiment on PC-3, more than 50 µM; in the experiment with HCT-116, 28 µM; with A549, more than 50 µM; in the experiment on HepG2, more than 50 µM; with HL-60, 43.1 µM. This compound registered an IC50 in the experiment with K562 of more than 50 µM.
Take `Cc1[nH]c(/C=C2\C(=O)Nc3cccnc32)c(C)c1C(=O)NCCN(C)C`: the IC50 in experiment [1] is more than 50 µM; in the experiment with PC-3, 47 µM; in the experiment with HCT-116 it was 12.4 µM; in the experiment on A549, 16.7 µM; with HepG2, 20.2 µM; with HL-60 it was 45.9 µM. In addition, 24.1 µM corresponded to half-maximal inhibition with K562 (IC50).
Turning to `Cc1[nH]c(/C=C2\C(=O)Nc3ncccc32)c(C)c1C(=O)N1CCN(C)CC1`, the IC50 was more than 50 µM in experiment [1]; more than 50 µM with PC-3; 35 µM in the experiment on HCT-116; 48.2 µM in the experiment with A549; 37.3 µM in the experiment with HepG2; 40 µM in the experiment with HL-60. In the experiment with K562, the IC50 was more than 50 µM.
On to `O=C1Nc2ccc(F)cc2/C1=C/c1ccc(C(=O)NCCN2CCOCC2)c(=O)[nH]1`, for which the IC50 was more than 50 µM in experiment [1]; 35.6 µM with PC-3; 12.8 µM in the experiment on HCT-116; 22 µM with A549; 35 µM in the experiment with HepG2; 38.9 µM with HL-60. Besides, the IC50 in the experiment with K562 amounted to 45.1 µM.
`O=C1Nc2ccc(F)cc2/C1=C/c1ccc(C(=O)NCCN2CCCCC2)c(=O)[nH]1`: the IC50 in experiment [1] is more than 50 µM; in the experiment on PC-3, 28 µM; in the experiment with HCT-116, 9.5 µM; in the experiment on A549, 15.2 µM; with HepG2 it was 18.9 µM; in the experiment with HL-60 it was 32.7 µM. Half-maximal inhibition with K562 (IC50) required 26.8 µM.
As to `Cc1[nH]c(/C=C2\C(=O)Nc3ncccc32)c(C)c1C(=O)NCCN(C)C`, the IC50 was more than 50 µM in experiment [1]; 49.5 µM with PC-3; 9.2 µM in the experiment with HCT-116; 21 µM in the experiment on A549; 18.3 µM in the experiment on HepG2; 48.8 µM in the experiment on HL-60. In the experiment with K562, this compound displayed an IC50 of 19.8 µM.
Turning to `Cc1[nH]c(/C=C2\C(=O)Nc3ccncc32)c(C)c1C(=O)N1CCN(CCO)CC1`, the IC50 (in experiment [1]; with PC-3; in the experiment on HCT-116; with A549; in the experiment with HepG2; in the experiment with HL-60) was more than 50 µM throughout. This compound also displayed an IC50 with K562 of more than 50 µM.
With `O=C1Nc2ncccc2/C1=C/c1c[nH]c2ccc(F)cc12`, the IC50 is more than 50 µM in experiment [1]; more than 50 µM in the experiment with PC-3; 17.8 µM in the experiment on HCT-116; more than 50 µM in the experiment with A549; more than 50 µM in the experiment with HepG2; 48 µM with HL-60. This compound displayed an IC50 in the experiment with K562 of 30 µM.
Turning to `O=C1Nc2ccc(F)cc2/C1=C/c1c[nH]c2ccc(F)cc12`, the IC50 in experiment [1] was more than 50 µM; with PC-3, more than 50 µM; in the experiment with HCT-116 it was 42.1 µM; with A549, more than 50 µM; in the experiment with HepG2, more than 50 µM; with HL-60, more than 50 µM. The same compound yielded an IC50 in the experiment with K562 of more than 50 µM.
